According to patent publication US8153818B2, “Triazolyl phenyl benzenesulfonamides” (ChemoCentryx, Inc., priority 2006, dated 2012):

Target: T1, CCR9 (Homo sapiens, UniProt P51686)
T1 construct: chemokine expressing cells (such as THP-1 cells for CCR2 assay or MOLT-4 cells for CCR9 assay); host or cells: MOLT-4
T1 sequence (P51686 1-369): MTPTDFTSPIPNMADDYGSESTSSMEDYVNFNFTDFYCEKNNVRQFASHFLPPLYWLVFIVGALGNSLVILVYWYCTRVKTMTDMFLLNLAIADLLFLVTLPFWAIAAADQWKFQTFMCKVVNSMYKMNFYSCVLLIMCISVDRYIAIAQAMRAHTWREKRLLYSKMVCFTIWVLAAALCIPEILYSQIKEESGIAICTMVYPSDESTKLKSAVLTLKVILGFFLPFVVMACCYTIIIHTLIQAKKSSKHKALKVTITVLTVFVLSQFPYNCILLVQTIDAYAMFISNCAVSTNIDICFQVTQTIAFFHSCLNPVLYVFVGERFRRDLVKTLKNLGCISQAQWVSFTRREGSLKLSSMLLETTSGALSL
Experiment: CCR9 activity in one of the chemotaxis, binding or calcium mobilization assays
Format: cell-based
Conditions: assay not specified per compound
Summary of the method: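 Chemotaxis: THP-1 cells (CCR2, 0.1 nM MCP-1, 90 min) or MOLT-4 cells (CCR9, 50 nM TECK, 150 min) preincubated with compound 15 min RT, migration at 37 °C through 5-μm membrane, CyQUANT read; IC50 by nonlinear regression. Calcium flux: Fluo-4-loaded cells, 0.1 nM MCP-1 or 25 nM TECK. Binding: THP-1, ~50 pM [125I]MCP-1, 3 h, 4 °C.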

SMILES | IC50 [nM]
Cc1nnc(-c2cc(Cl)ccc2NS(=O)(=O)c2ccc(C(C)(C)C)cc2)n1C1CCNC1 (stereo not shown) [Compound 99] | < 1000
CC(C)OCc1nnc(-c2cc(Cl)ccc2NS(=O)(=O)c2ccc(C(C)(C)C)cc2)n1C [Compound 103, 4-tert-butyl-N-(4-chloro-2-(5-(isopropoxymethyl)-4-methyl-4H-1,2,4-triazol-3-yl)phenyl)benzenesulfonamide] | < 1000
CCc1nnc(-c2cc(Cl)ccc2NS(=O)(=O)c2ccc(C(C)(C)C)cc2)n1C [Compound 105, 4-tert-butyl-N-(4-chloro-2-(5-ethyl-4-methyl-4H-1,2,4-triazol-3-yl)phenyl)benzenesulfonamide] | < 1000
CCc1nnc(-c2cc(Cl)c(F)cc2NS(=O)(=O)c2ccc(C(C)(C)C)cc2)n1C [Compound 110, 4-tert-butyl-N-(4-chloro-2-(5-ethyl-4-methyl-4H-1,2,4-triazol-3-yl)-5-fluorophenyl)benzenesulfonamide] | < 1000
Cn1c(-c2cocn2)nnc1-c1cc(Cl)c(F)cc1NS(=O)(=O)c1ccc(C(C)(C)C)cc1 [Compound 111] | < 1000
CC(C)(C)c1ccc(S(=O)(=O)Nc2ccc(Cl)cc2-c2nncn2[C@H]2CCCNC2)cc1 [Compound 113] | < 1000
CC(C)c1nnc(-c2cc(Cl)ccc2NS(=O)(=O)c2ccc(C(C)(C)C)cc2)n1[C@H]1CCNC1 [Compound 118, (S)-4-tert-butyl-N-(4-chloro-2-(5-isopropyl-4-(pyrrolidin-3-yl)-4H-1,2,4-triazol-3-yl)phenyl)benzenesulfonamide] | < 1000
CCc1nnc(-c2cc(Cl)ccc2NS(=O)(=O)c2ccc(C(C)(C)C)cc2)n1[C@H]1CCNC1 [Compound 119, (S)-4-tert-butyl-N-(4-chloro-2-(5-ethyl-4-(pyrrolidin-3-yl)-4H-1,2,4-triazol-3-yl)phenyl)benzenesulfonamide] | < 1000
Cn1c(CN2CCC2)nnc1-c1cc(Cl)c(F)cc1NS(=O)(=O)c1ccc(C(C)(C)C)cc1 [Compound 122] | < 1000
Cn1c(CO)nnc1-c1cc(Cl)c(F)cc1NS(=O)(=O)c1ccc(C(C)(C)C)cc1 [Compound 123, 4-tert-butyl-N-(4-chloro-5-fluoro-2-(5-(hydroxymethyl)-4-methyl-4H-1,2,4-triazol-3-yl)phenyl)benzenesulfonamide] | < 1000
CC(=O)N1CCC(n2c(C)nnc2-c2cc(Cl)ccc2NS(=O)(=O)c2ccc(C(C)(C)C)cc2)C1 (stereo not shown) [Compound 124] | < 1000
CNCCn1c(C)nnc1-c1cc(Cl)ccc1NS(=O)(=O)c1ccc(C(C)(C)C)cc1 [Compound 126, 4-tert-butyl-N-(4-chloro-2-(5-methyl-4-(2-(methylamino)ethyl)-4H-1,2,4-triazol-3-yl)phenyl)benzenesulfonamide] | < 1000
CCc1nnc(-c2cc(C(=O)O)ccc2NS(=O)(=O)c2ccc(C(C)(C)C)cc2)n1C [Compound 130, 4-(4-tert-butylphenylsulfonamido)-3-(5-ethyl-4-methyl-4H-1,2,4-triazol-3-yl)benzoic acid] | < 1000
CC(C)(C)c1ccc(S(=O)(=O)Nc2ccc(Cl)cc2-c2nncn2C2CNC2)cc1 [Compound 131] | < 1000
CNCc1nnc(-c2cc(Cl)ccc2NS(=O)(=O)c2ccc(C(C)(C)C)cc2)n1C [Compound 132, 4-tert-butyl-N-(4-chloro-2-(4-methyl-5-((methylamino)methyl)-4H-1,2,4-triazol-3-yl)phenyl)benzenesulfonamide] | < 1000
Cc1nnc(-c2cc(Cl)ccc2NS(=O)(=O)c2ccc(N3CCOCC3)c(F)c2)n1C [Compound 135, N-(4-chloro-2-(4,5-dimethyl-4H-1,2,4-triazol-3-yl)phenyl)-3-fluoro-4-morpholinobenzenesulfonamide] | < 1000
CC(C)NCc1nnc(-c2cc(Cl)ccc2NS(=O)(=O)c2ccc(C(C)(C)C)cc2)n1C [Compound 138, 4-tert-butyl-N-(4-chloro-2-(5-((isopropylamino)methyl)-4-methyl-4H-1,2,4-triazol-3-yl)phenyl)benzenesulfonamide] | < 1000
Cn1c(-c2cc(Cl)c(F)cc2NS(=O)(=O)c2ccc(C(C)(C)C)cc2)nnc1[C@H]1CCCN1 [Compound 140] | < 1000
CC(C)N1CC[C@H](n2cnnc2-c2cc(Cl)ccc2NS(=O)(=O)c2ccc(C(C)(C)C)cc2)C1 [Compound 141] | < 1000

The next lines start with the values.

IC50 [nM] | SMILES
< 1000 | Cc1nnc(-c2cc(F)c(F)cc2NS(=O)(=O)c2ccc(C(C)(C)C)cc2)n1C [Compound 100, 4-tert-butyl-N-(2-(4,5-dimethyl-4H-1,2,4-triazol-3-yl)-4,5-difluorophenyl)benzenesulfonamide]
< 1000 | Cc1nnc(-c2cc(Cl)ccc2NS(=O)(=O)c2ccc(C(C)(C)C)cc2)n1C1CCOC1 (stereo not shown) [Compound 101]
< 1000 | Cn1c(-c2cc(Cl)ccc2NS(=O)(=O)c2ccc(C(C)(C)C)cc2)nnc1C1CCCO1 (stereo not shown) [Compound 102]
< 1000 | CC(C)(C)c1ccc(S(=O)(=O)Nc2ccc(Cl)cc2-c2nncn2[C@H]2CCCOC2)cc1 [Compound 104]
< 1000 | Cc1nnc(-c2cc(Cl)c(F)cc2NS(=O)(=O)c2ccc(C(C)(C)C)cc2)n1[C@H]1CCNC1 [Compound 106]
< 1000 | COCc1nnc(-c2cc(Cl)c(F)cc2NS(=O)(=O)c2ccc(C(C)(C)C)cc2)n1C [Compound 107, 4-tert-butyl-N-(4-chloro-5-fluoro-2-(5-(methoxymethyl)-4-methyl-4H-1,2,4-triazol-3-yl)phenyl)benzenesulfonamide]
< 1000 | CC(C)(C)c1ccc(S(=O)(=O)Nc2cc(F)c(Cl)cc2-c2nncn2C2CCCOC2)cc1 (stereo not shown) [Compound 108]
< 1000 | CC(C)(C)c1ccc(S(=O)(=O)Nc2cc(F)c(Cl)cc2-c2nncn2[C@H]2CCNC2)cc1 [Compound 109]
< 1000 | CC(C)(C)c1ccc(S(=O)(=O)Nc2cc(F)c(Cl)cc2-c2nncn2[C@H]2CCCNC2)cc1 [Compound 112]
< 1000 | Cc1nnc(-c2cc(Cl)ccc2NS(=O)(=O)c2ccc(C(C)(C)C)cc2)n1[C@H]1CCCNC1 [Compound 114]
< 1000 | Cn1c(-c2cc(Cl)c(F)cc2NS(=O)(=O)c2ccc(C(C)(C)C)cc2)nnc1C1CCOC1 (stereo not shown) [Compound 115]
< 1000 | Cn1c(-c2cc(Cl)c(F)cc2NS(=O)(=O)c2ccc(C(C)(C)C)cc2)nnc1C1CCOCC1 [Compound 116]
< 1000 | Cc1ocnc1-c1nnc(-c2cc(Cl)ccc2NS(=O)(=O)c2ccc(C(C)(C)C)cc2)n1C [Compound 117]
< 1000 | CC(C)(C)c1ccc(S(=O)(=O)Nc2cc(F)c(Cl)cc2-c2nncn2C2CCOC2)cc1 (stereo not shown) [Compound 120]
< 1000 | Cn1c(CN2CCCC2)nnc1-c1cc(Cl)c(F)cc1NS(=O)(=O)c1ccc(C(C)(C)C)cc1 [Compound 121]
< 1000 | Cc1nnc(-c2cc(Cl)ccc2NS(=O)(=O)c2ccc(C(C)(C)C)cc2)n1CCN(C)C [Compound 125, 4-tert-butyl-N-(4-chloro-2-(4-(2-(dimethylamino)ethyl)-5-methyl-4H-1,2,4-triazol-3-yl)phenyl)benzenesulfonamide]
< 1000 | Cc1nnc(-c2cc(Cl)ccc2NS(=O)(=O)c2ccc(C(C)(C)C)cc2)n1[C@H]1CCNC1 [Compound 127]
< 1000 | CCc1nnc(-c2cc(C#N)ccc2NS(=O)(=O)c2ccc(C(C)(C)C)cc2)n1C [Compound 128, 4-tert-butyl-N-(4-cyano-2-(5-ethyl-4-methyl-4H-1,2,4-triazol-3-yl)phenyl)benzenesulfonamide]
< 1000 | CCc1nnc(-c2cc(C(N)=O)ccc2NS(=O)(=O)c2ccc(C(C)(C)C)cc2)n1C [Compound 129, 4-(4-tert-butylphenylsulfonamido)-3-(5-ethyl-4-methyl-4H-1,2,4-triazol-3-yl)benzamide]
< 1000 | CCc1nnc(-c2cc(C(=O)OC)ccc2NS(=O)(=O)c2ccc(C(C)(C)C)cc2)n1C [Compound 133, methyl 4-(4-tert-butylphenylsulfonamido)-3-(5-ethyl-4-methyl-4H-1,2,4-triazol-3-yl)benzoate]
< 1000 | CC(C)Oc1ccc(S(=O)(=O)Nc2ccc(Cl)cc2-c2nncn2[C@H]2CCNC2)cc1 [Compound 134, (S)—N-(4-chloro-2-(4-(pyrrolidin-3-yl)-4H-1,2,4-triazol-3-yl)phenyl)-4-isopropoxybenzenesulfonamide]
< 1000 | COCCn1cnnc1-c1cc(Cl)c(F)cc1NS(=O)(=O)c1ccc(C(C)(C)C)cc1 [Compound 136, 4-tert-butyl-N-(4-chloro-5-fluoro-2-(4-(2-methoxyethyl)-4H-1,2,4-triazol-3-yl)phenyl)benzenesulfonamide]
< 1000 | Cn1c(CCO)nnc1-c1cc(Cl)c(F)cc1NS(=O)(=O)c1ccc(C(C)(C)C)cc1 [Compound 137, 4-tert-butyl-N-(4-chloro-5-fluoro-2-(5-(2-hydroxyethyl)-4-methyl-4H-1,2,4-triazol-3-yl)phenyl)benzenesulfonamide]
< 1000 | CO[C@@H](C)c1nnc(-c2cc(Cl)c(F)cc2NS(=O)(=O)c2ccc(C(C)(C)C)cc2)n1C [Compound 139]
